We go through eight compounds from patent US20100292233A1, “DIHYDRO-1H-PYRROLO[1,2-A]INDOL-1-YL CARBOXYLIC ACID DERIVATIVES WHICH ACT AS S1P1 AGONISTS” (ARENA PHARMACEUTICALS, INC., priority 2008, published 2010).

Broadly, the EC50 is the concentration needed to bring the measured effect to its halfway point.

For data set [1], the target named is T1, S1P1 receptor (Homo sapiens, UniProt P21453).
T1 construct: expressed in transfected cells; host or cells: CHO-K1 (ATCC CCL-61)
The experiment in a line: HTRF assay for direct cAMP measurement (S1P1 receptor agonism). It counts as cell-based. Conditions: recombinant CHO-K1 cells stably transfected with S1P1 receptor; decrease of cAMP. The text has this: Compounds were screened for S1P1 receptor agonism (e.g., human S1P1 receptor) using the HTRF® assay for direct cAMP measurement (Gabriel et al, ASSAY and Drug Development Technologies, 1:291-303, 2003) and recombinant CHO-K1 cells stably transfected with S1P1 receptor. CHO-K1 cells were obtained from ATCC® (Manassas, Va.; Catalog #CCL-61). An agonist of the S1P1 receptor was detected in the HTRF® assay for direct cAMP measurement as a compound which decreased cAMP concentration. The HTRF® assay also was used to determine EC50 values for S1P1 receptor agonists.
Principle of the assay: The HTRF® assay kit was purchased from Cisbio-US, Inc. (Bedford, Mass.; Catalog #62AM4PEC). The HTRF® assay supported by the kit is a competitive immunoassay between endogenous cAMP produced by the CHO-K1 cells and tracer cAMP labeled with the dye d2. The tracer binding is visualized by a monoclonal anti-cAMP antibody labeled with Cryptate. The specific signal (i.e., fluorescence resonance energy transfer, FRET) is inversely proportional to the concentration of unlabeled cAMP in the standard or sample.
Standard curve: The fluorescence ratio (665 nm/620 nm) of the standards (0.17 to 712 nM cAMP) included in the assay was calculated and used to generate a cAMP standard curve according to the kit manufacturer's instructions. The fluorescence ratio of the samples (test compound or compound buffer) was calculated and used to deduce respective cAMP concentrations by reference to the cAMP standard curve.
Setup of the assay: The HTRF® assay was carried out using a two-step protocol essentially according to the kit manufacturer's instructions, in 20 μl total volume per well, 384-well plate format (ProxiPlates; PerkinElmer, Fremont, Calif.; catalog #6008280). To each of the experimental wells was transferred 1500 recombinant CHO-K1 cells in 5 μl phosphate buffered saline containing calcium chloride and magnesium chloride (“PBS+”; Invitrogen, Carlsbad, Calif.; catalog #14040) supplemented with IBMX (250 μM) and rolipram (20 μM) (phosphodiesterase inhibitors; Sigma-Aldrich, St. Louis, Mo.; catalog #I5879 and catalog #R6520, respectively), followed by test compound in 5 μl compound buffer (PBS+ supplemented with […] NKH477 (water-soluble forskolin derivative; SignaGen Laboratories, Gaithersburg, Md.; catalog #PKI-NKH477-010)) or 5 μl compound buffer. The plate was then incubated at room temperature for 1 hour. To each well was then added 5 μl cAMP-d2 conjugate in lysis buffer and 5 μl Cryptate conjugate in lysis buffer according to the kit manufacturer's instructions. The plate was then further incubated at room temperature for 1 hour, after which the assay plate was read.
Assay readout: HTRF® readout was accomplished using a PHERAstar (BMG LABTECH Inc., Durham, N.C.) or EnVision™ (PerkinElmer, Fremont, Calif.) microplate reader.
For orientation: In TR-FRET formats the signal depends on donor and acceptor labels being close together.

The target of data set [2] is T2, S1P3 receptor (Homo sapiens, UniProt Q99500).
T2 construct: a human neuroblastoma cell line which endogenously expresses S1P3 (predominantly), S1P2 and S1P5 receptors
Description: Cellular/functional Ca2+ assay for agonist activity on S1P3 receptor. It is filed as cell-based. Conditions: human neuroblastoma cells; FIG. 1; done by Caliper LifeSciences. How it is done:
Of these, S1P3 and S1P2 receptors respond to agonists, such as S1P, with an intracellular calcium increase. […] Such an assay can be performed commercially, e.g. by Caliper LifeSciences (Hopkinton, Mass.).
Assay: Compound 2 (Enantiomer 1) was assayed for agonist activity on S1P3 receptor by Caliper LifeSciences. Human neuroblastoma cells were washed and resuspended in physiological buffer. The cells were then loaded with dye that measures intracellular calcium. S1P was used as a reference agonist. Compound 2 (Enantiomer 1) was included in the assay as a test compound. After addition of […] or Compound 2 (Enantiomer 1), fluorescence was measured at 485 nm excitation/525 nm emission every 2 sec for at least 60 sec. Calcium ionophore A23187 was then added as an internal positive control.

Data set [3] deals with BALB/c mice. Description: Mouse peripheral lymphocyte lowering (PLL) assay. It is filed as in vivo. Conditions: 1 mg/kg i.v., 5 hours post dose, FIG. 2. How it is done:
Animals: Male BALB/c mice (6 to 7 weeks of age at start of study) (Charles River Laboratories, Wilmington, Mass.) were housed four per cage and maintained in a humidity—(40-60%) and temperature—(68-72° F.) controlled facility on a 12 hr:12 hr light/dark cycle (lights on at 6:30 am) with free access to food (Harlan Teklad, Orange, Calif., Rodent Diet 8604) and water. Mice were allowed one week of habituation to the animal facility before testing.
PLL Assay: Mice were administered via i.v. one of the following: vehicle (100% PEG400) or 1 mg/kg Compound 1 in vehicle, in a total volume of 5 mL/kg. Peripheral blood samples were collected at 5 hours post dose. The mice were anesthetized with isoflurane and bled retro-orbitally (300 μL) into 1.5 ml EDTA tubes. A complete […] (CBC) (including lymphocyte count) was obtained using CELL-DYN® 3700 (Abbott Laboratories, Abbott Park, Ill.). Results are presented in FIG. 2, in which the peripheral blood lymphocyte (PBL) count is shown for the 5 hour group.

Data set [4] has as its system C57BL/6 mice. Conditions: prophylactic oral administration, 1 mg/kg, three times a week; cited from earlier work.
For data set [5] the following is noted: attributed to agonism of the S1P3 receptor; cited from earlier work.
Data set [6] has as its system mice. Conditions: oral administration to mice; cited from earlier work.
The conditions of data set [7]: short-term high dose; cited from earlier work.
Data set [8] deals with patients with multiple sclerosis. Conditions: Phase II, relapsing-remitting multiple sclerosis; cited from earlier work.

Entries after “also recorded” stand apart in the source; their conditions may differ.

T1 sequence (P21453 whole entry): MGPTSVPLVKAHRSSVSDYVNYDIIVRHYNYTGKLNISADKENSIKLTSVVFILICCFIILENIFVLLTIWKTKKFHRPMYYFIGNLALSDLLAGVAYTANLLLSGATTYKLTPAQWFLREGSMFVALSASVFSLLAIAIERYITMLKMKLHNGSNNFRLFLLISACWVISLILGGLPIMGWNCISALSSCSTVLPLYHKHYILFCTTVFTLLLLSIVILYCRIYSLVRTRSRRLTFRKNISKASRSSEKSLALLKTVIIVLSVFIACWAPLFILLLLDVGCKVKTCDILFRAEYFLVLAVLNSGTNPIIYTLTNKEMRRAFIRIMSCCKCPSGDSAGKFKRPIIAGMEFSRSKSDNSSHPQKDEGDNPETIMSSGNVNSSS
T2 sequence (Q99500 whole entry): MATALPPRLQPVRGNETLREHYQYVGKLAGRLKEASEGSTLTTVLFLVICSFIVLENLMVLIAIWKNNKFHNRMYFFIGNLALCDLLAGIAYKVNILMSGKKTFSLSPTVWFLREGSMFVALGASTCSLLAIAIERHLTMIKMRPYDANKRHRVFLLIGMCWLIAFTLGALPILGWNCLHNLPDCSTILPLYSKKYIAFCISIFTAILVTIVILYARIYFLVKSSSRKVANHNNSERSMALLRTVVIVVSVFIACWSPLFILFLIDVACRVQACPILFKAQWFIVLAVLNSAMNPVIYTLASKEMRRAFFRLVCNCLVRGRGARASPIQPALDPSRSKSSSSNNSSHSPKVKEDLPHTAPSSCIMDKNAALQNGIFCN

Turning to `N#Cc1cc(OC(F)(F)F)cc(-c2nc(-c3ccc4c(c3)cc3n4CCC3CC(=O)O)no2)c1` (racemic) [Compound 2, 2-(7-(5-(3-Cyano-5-(trifluoromethoxy)phenyl)-1,2,4-oxadiazol-3-yl)-2,3-dihydro-1H-pyrrolo[1,2-a]indol-1-yl)acetic Acid], in data set [1], the EC50 was found to be 10 nM.

For `N#Cc1cc(OC(F)(F)F)cc(-c2nc(-c3ccc4c(c3)cc3n4CCC3CC(=O)O)no2)c1` (single isomer, unassigned) [Compound 2 (Enantiomer 1), 2-(7-(5-(3-Cyano-5-(trifluoromethoxy)phenyl)-1,2,4-oxadiazol-3-yl)-2,3-dihydro-1H-pyrrolo[1,2-a]indol-1-yl)acetic Acid], the “agonist activity on S1P3 receptor (intracellular calcium)” value in data set [2] is reported as “substantially little to no activity; also recorded: no or substantially no agonist activity”.

Consider `O=C(O)CC1CCn2c1cc1cc(-c3noc(-c4cc(C(F)(F)F)cc(C(F)(F)F)c4)n3)ccc12` (stereo not shown) [Compound 1, 2-(7-(5-(3,5-Bis(trifluoromethyl)phenyl)-1,2,4-oxadiazol-3-yl)-2,3-dihydro-1H-pyrrolo[1,2-a]indol-1-yl)acetic Acid], for which, in data set [1], the EC50 was determined as 7.2 nM. In addition, the “peripheral lymphocyte lowering (peripheral blood lymphocyte count vs vehicle)” value in data set [3] is recorded as “exhibited activity for inducing peripheral lymphocyte lowering”.

As to `O=C(O)CC1CCn2c1cc1cc(-c3noc(-c4ccc5c(c4)OC(F)(F)O5)n3)ccc12` (stereo not shown) [Compound 8, 2-(7-(5-(2,2-Difluorobenzo[d][1,3]dioxol-5-yl)-1,2,4-oxadiazol-3-yl)-2,3-dihydro-1H-pyrrolo[1,2-a]indol-1-yl)acetic Acid], the EC50 in data set [1] was 41 nM.

In the case of `N#Cc1cc(-c2nc(-c3ccc4c(c3)cc3n4CCC3CC(=O)O)no2)ccc1OCC(F)(F)F` (stereo not shown) [Compound 15, 2-(7-(5-(3-Cyano-4-(2,2,2-trifluoroethoxy)phenyl)-1,2,4-oxadiazol-3-yl)-2,3-dihydro-1H-pyrrolo[1,2-a]indol-1-yl)acetic Acid], the EC50 in data set [1] is 6.3 nM.

With `O=C(O)CC1CCn2c1cc1cc(-c3noc(-c4cc(Br)cc(OC(F)(F)F)c4)n3)ccc12` (stereo not shown) [Compound 18, 2-(7-(5-(3-Bromo-5-(trifluoromethoxy)phenyl)-1,2,4-oxadiazol-3-yl)-2,3-dihydro-1H-pyrrolo[1,2-a]indol-1-yl)acetic Acid], the EC50 in data set [1] stood at 13 nM.

Turning to `CNc1ccc2oc(C[C@H]3O[C@@]4(CC[C@H]3C)O[C@H]([C@H](C)C(=O)c3ccc[nH]3)[C@H](C)C[C@H]4C)nc2c1C(=O)O` [Compound A23187, reference compound], in data set [2], the “agonist activity on S1P3 receptor (intracellular calcium)” value is given as “pronounced agonist activity”.

Consider `CCCCCCCCc1ccc(CCC(N)(CO)CO)cc1` [FTY720], for which, in data set [4], the “development of EAMG” value is listed as “completely prevented the development of experimental autoimmune myasthenia gravis (EAMG)”. Moreover, the “adverse event in clinical trials” value in data set [5] is “transient asymptomatic bradycardia”. The VEGF-induced vascular permeability result in data set [6] is “potently blocked VEGF-induced vascular permeability”. In addition, in data set [7], the ocular infiltrates result is given as “rapidly reduced ocular infiltrates”. For the same compound, the “MRI lesions and clinical disease activity” value in data set [8] was “reduce the number of lesions detected by magnetic resonance imaging (MRI) and clinical disease activity”.
